Results: patent US10537567B2, “Kinase inhibitors for treatment of disease” (BioAxone BioSciences, Inc., priority 2017, dated 2020)
“Also recorded” adds a separate entry of the source. Read-outs that look alike come from different tables or passages of the source.

Tests used:
human TM cells = assay: Fibronectin immunoblot in TGFβ-stimulated TM cells; assay type: cell-based; conditions: 2.5 ng/ml TGFβ, 0-100 μM, 24 hours
[1] = test system: midbrain dopaminergic neurons; assay: MPTP mouse model; assay type: in vivo, C57BL/6 mice; conditions: 10 or 100 mg/kg per day in drinking water, 14 days
Excerpt: Previous studies have shown that this compound causes the overactivation of the c-Abl non-receptor tyrosine kinase in these neurons, which then phosphorylates the Parkin E3 ubiquitin ligase leading to its inactivation (Ko et al., Proc. Nat. Acad. Sci. USA; 2010; 107:16691). Additionally, this neurotoxin is also known to cause the activation of Rho kinase (ROCK) in the brain when administered to animals (Rodriguez-Perez et al., Neurobiol. Dis., 2013; 58:209).
Different cohorts of adult C57BL/6 mice (Charles River; Wilmington, Mass.) (8 to 10 per group) receive intraperitoneal injections of either vehicle or 30 mg/kg of MPTP (Sigma; St. Louis, Mo.) dissolved in 0.9% saline for 5 consecutive days. This sub-acute/chronic treatment regimen typically leads to the death of 40 to 50% of midbrain dopaminergic neurons of the substantia nigra within 1 to 2 weeks (Meredith and Rademacher; J Parkinsons Dis.; 2011; 1(1):19).
The cohorts are carried forward for 14 days. On the final 2 days of the treatment paradigm, mouse cohorts are subjected to behavioral testing using the accelerated rotarod on one day or grid-walking test on the other day. At completion of the final behavioral test, animals are deeply anesthetized and then perfused transcardially with 4% paraformaldehyde in phosphate buffer. Brains are removed from the craniums and post-fixed for 1-2 hours. The brains are then immersed in 30% sucrose for cryo-protection. Whole coronal sections (20-25 μm thick) through the midbrain region containing the substantia nigra are obtained for each animal and thaw mounted onto SuperFost Plus slides (Thermo-Fisher). Individual sections are reacted with rabbit anti-tyrosine hydroxylase (TH) antibody (EMD-Millipore) overnight in PBS containing 0.05% Triton X-100 and 10% normal goat serum. After washing in PBS/Triton-X-100 multiple times, sections are reacted with […] goat anti-rabbit secondary antibody. Following another round of washing, the slides are reacted with Vecta Stain Elite ABC kit for DAB-enhanced peroxidase detection (Vector Labs; Burlingame, Calif.). Following peroxidase reaction, the sections are subjected to Nissl staining to label all cell types as a counterstain. The sections are then coverslipped in permanent mounting media.
Sections are examined by visible microscopy and photographic images captured. The number of TH positive neurons are estimated in the series of images by unbiased stereological analysis using Stereo Investigator. Numbers of TH-positive neurons per area of the substantia nigra are determined and statistical analyses performed to compare between, control untreated, MPTP/no treatment, MPTP/inhibitor treatments.

retinal ganglion cells = assay: RGC dendritic arbor in Hb9-GFP glaucoma mice; assay type: in vivo; conditions: 1 month, weekly microbead injection, daily eye drops
Excerpt: To evaluate changes in the RGC dendritic arbor in glaucoma and the ability of the API to prevent neuronal loss in the retina, mice are used which carry an enhanced GFP (eGFP) driven by the Hb9 promoter (B6.Cg-Tg(Hlxb9-GFP)1Tmj/J; Jackson Labs), which directs GFP expression to the on-off direction-sensitive ganglion cell (ooDSGC) sub-population of retinal ganglion cells (Trenholm et al. 2011 Neuron. 71(4): p. 683-694). These mice allow visualization of non-overlapping RGCs for unambiguous identification of individual dendritic arbors. Treated and control glaucoma eyes are examined, as well as normal eyes 1 month after weekly microbead injection and daily eye drops. The eyes are fixed by perfusion and prepared for retinal whole mounts, and the labeled ganglion cells visualized by fluorescence microscopy. Images are imported into ImageJ and analyzed for dendritic field area (using the polygon tool to join points along the perimeter of the field) and subjected to Sholl analysis using the plugin for Image J to be able to characterize dendritic branching and complexity of normal, glaucoma/treated and glaucoma/control RGCs.

ROCK1 = ROCK1 (Homo sapiens, UniProt Q13464); assay: Direct filter-binding radiometric kinase assay (Eurofins) at Km ATP; assay type: biochemical; design: purchased Eurofins Testing (Dundee, Scotland, UK)
Sequence of ROCK1 (Q13464 whole entry): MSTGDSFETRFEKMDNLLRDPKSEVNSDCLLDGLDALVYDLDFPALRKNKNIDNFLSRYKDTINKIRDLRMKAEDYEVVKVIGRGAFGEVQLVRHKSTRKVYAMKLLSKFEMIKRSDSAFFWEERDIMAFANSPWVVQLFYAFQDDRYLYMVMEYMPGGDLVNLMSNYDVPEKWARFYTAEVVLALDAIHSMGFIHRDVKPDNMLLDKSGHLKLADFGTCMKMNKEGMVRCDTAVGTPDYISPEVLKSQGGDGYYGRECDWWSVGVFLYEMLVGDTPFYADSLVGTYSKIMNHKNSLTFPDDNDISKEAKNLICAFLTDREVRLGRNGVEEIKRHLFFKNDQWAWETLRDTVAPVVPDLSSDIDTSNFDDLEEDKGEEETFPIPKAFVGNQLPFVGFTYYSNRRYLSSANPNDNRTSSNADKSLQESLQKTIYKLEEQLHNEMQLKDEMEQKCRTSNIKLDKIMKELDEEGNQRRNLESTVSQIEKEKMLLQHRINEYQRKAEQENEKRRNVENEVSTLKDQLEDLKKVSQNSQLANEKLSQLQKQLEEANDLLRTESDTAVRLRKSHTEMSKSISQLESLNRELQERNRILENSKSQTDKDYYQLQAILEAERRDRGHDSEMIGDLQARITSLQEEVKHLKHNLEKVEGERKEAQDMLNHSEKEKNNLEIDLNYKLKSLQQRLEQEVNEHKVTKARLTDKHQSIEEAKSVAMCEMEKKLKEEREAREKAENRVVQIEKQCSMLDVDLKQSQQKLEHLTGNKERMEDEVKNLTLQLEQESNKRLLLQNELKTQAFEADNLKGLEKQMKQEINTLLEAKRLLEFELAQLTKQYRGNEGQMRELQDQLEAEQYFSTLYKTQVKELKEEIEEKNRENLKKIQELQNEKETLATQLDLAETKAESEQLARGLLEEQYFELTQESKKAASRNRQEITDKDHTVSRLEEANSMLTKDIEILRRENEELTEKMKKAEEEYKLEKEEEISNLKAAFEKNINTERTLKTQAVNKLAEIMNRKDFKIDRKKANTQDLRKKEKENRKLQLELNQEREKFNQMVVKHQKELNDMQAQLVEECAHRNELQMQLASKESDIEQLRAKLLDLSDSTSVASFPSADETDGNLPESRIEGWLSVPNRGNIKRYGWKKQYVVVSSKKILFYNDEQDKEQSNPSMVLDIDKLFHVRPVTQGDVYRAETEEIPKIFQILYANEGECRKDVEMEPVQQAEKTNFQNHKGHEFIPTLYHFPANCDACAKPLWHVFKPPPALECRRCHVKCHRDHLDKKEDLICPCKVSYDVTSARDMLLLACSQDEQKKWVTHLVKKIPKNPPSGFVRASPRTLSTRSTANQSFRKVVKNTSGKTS
Protocol: (§1) ROCK1 and ROCK2 IC50 determinations were made using ATP concentrations at the Km ATP of 70 μM and 15 μM for ROCK1 and ROCK2, respectively.
(§2) For the data shown in Table 4, IC50 inhibition curves were performed at the respective Km for ATP for both ROCK1 and ROCK2. Performing these assays at the Km of ATP gives a better representation of the inhibitory activity. Other comparisons where differing kinases are tested at a single ATP concentration can potentially misrepresent the comparative efficacy since enzyme inhibitory activity tested below the Km for ATP of the enzyme, produces a circumstance where the enzyme is actually not constantly bound with ATP and the reaction velocity becomes sub-optimal.

ROCK2 = ROCK2 (Homo sapiens, UniProt O75116); assay: as above; assay type: biochemical; design: purchased Eurofins Testing (Dundee, Scotland, UK); conditions: for ROCK1/ROCK2 (fold difference): IC50 at respective Km ATP
Sequence of ROCK2 (O75116 whole entry): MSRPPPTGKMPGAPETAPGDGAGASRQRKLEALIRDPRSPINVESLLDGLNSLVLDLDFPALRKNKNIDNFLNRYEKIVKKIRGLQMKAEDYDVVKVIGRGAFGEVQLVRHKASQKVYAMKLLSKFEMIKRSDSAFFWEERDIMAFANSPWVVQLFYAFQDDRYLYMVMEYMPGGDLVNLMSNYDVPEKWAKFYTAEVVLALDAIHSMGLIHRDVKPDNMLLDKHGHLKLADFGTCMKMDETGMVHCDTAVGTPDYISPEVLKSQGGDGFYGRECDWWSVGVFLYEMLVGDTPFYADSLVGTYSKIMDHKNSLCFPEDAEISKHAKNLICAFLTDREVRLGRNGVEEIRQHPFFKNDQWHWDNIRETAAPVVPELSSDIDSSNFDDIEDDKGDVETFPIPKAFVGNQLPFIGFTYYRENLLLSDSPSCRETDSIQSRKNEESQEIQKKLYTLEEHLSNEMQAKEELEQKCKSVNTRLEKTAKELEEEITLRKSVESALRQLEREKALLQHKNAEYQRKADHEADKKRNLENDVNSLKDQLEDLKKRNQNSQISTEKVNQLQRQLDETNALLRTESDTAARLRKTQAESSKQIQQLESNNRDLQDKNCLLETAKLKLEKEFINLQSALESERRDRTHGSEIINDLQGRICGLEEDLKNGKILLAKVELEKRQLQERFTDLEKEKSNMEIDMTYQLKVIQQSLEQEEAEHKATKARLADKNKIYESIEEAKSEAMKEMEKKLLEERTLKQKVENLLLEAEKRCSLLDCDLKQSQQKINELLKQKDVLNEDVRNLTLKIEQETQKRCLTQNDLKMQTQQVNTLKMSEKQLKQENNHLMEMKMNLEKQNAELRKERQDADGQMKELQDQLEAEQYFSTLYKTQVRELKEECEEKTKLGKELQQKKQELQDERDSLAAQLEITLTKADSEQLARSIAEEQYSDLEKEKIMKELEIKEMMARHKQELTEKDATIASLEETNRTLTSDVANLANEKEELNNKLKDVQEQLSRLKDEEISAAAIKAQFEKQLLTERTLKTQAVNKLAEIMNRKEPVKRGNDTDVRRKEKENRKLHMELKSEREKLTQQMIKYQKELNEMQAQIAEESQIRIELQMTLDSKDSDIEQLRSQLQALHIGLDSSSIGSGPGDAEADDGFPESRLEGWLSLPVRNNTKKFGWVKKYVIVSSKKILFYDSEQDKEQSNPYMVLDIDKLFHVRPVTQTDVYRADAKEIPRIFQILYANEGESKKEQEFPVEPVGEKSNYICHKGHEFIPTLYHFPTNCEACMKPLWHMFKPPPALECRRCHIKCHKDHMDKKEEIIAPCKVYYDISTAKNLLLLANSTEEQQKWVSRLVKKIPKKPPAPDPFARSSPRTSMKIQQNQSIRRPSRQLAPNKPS
Protocol: as §1, §2

[2] = Penetration and distribution in ocular tissues after topical instillation (LC-MS); assay type: in vivo, Sprague Dawley rats; conditions: topical 5% solution of BA-1076, 20 minutes
Protocol: Adult Sprague Dawley rats (Charles River Laboratories) were used for this experiment. […] One g of tissue was homogenized in 1 mL of 1×PBS. Homogenates were precipitated by pipetting 200 μL of homogenate into a tube using aseptically cut off 1000 μL pipette tips to prevent clogging. Samples are further diluted with 100 μL PBS to aid in precipitation. 900 μL of cold methanol was added to each sample and samples were vortexed for 5 to 10 seconds. Samples were placed at 4° C. for 30 to 40 min and then centrifuged at 10,000 g for 15 min at 4° C. The supernatant is collected and stored at −80° C. until analyzed.
For the optic nerve sample, the concentration is shown per length of optic nerve (right y-axis). […] Therefore, drug is available in the retina and optic nerve for treating these tissues affected in glaucoma and other retinal diseases.
In FIG. 14 we examined the ability of metabolite to penetrate the ocular tissues of the eye after topical instillation of a 3% solution of metabolite. In comparison with FIG. 13, that also the metabolite has adequate penetration into ocular and CNS tissue. Of particular note is the penetration in the retina and presence in the optic nerve. All compounds were given topically as eye drops to the eye of adult Sprague Dawley rats. Twenty minutes later the indicated tissues were removed and the parent compound and active metabolite were analyzed by LC/MS.

IC50 (ROCK1) [µM]	IC50 (ROCK2) [µM]	Structure (SMILES)	Fibronectin levels (human TM cells)	Cell loss in substantia nigra [1]	Motor function in behavioral testing [1]	Retinal ganglion cell dendritic arbors (retinal ganglion cells)	IC50 (ROCK1; ATP at Km, 70 μM, * = higher purity BA-1076) [µM]	ROCK1/ROCK2 (fold difference) (ROCK2)	ROCK1/ROCK2 (fold difference) (ROCK2; listed as BA-1076*)	Penetration into ocular tissues [2]
		C[C@H](N)C1CCN(S(=O)(=O)c2cccc3cnccc23)CC1 [BA-1076]	Fibronectin levels decreased dose-dependently	prevent a significant percentage of the cell loss	improved motor function	protect and/or restore retinal ganglion cell dendritic arbors	19.6	55.5	60.8	penetrate the tissue of the eye, including the CNS tissue of the retina
23.6	0.491	C[C@H](N)C1CCN(S(=O)(=O)c2cccc3c(=O)[nH]ccc23)CC1 [BA-2057]	more potent in decreasing fibronectin deposition than BA-1076	prevent a significant percentage of the cell loss	improved motor function	protect and/or restore retinal ganglion cell dendritic arbors		48.0		penetrate the tissue of the eye, including the CNS tissue of the retina; also recorded: the metabolite is better able to penetrate the optic nerve
